Experimental data published in patent US11731943B2, “Therapeutic compounds, compositions and methods of use thereof” (priority 2016, dated 2023).
Like-named read-outs stand apart in the source and are kept apart here.

Key:
[1] = target: isolated recombinant JAK1 kinase domain (Homo sapiens (Human), UniProt P23458); test: JAK1 enzyme assay (Caliper LabChip, Ki); type: biochemical
In short: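 Ki derived via Morrison tight-binding model, ATP-competitive correction applied. Read-out: product/total ratio of a 5-carboxyfluorescein-tagged JAK3 peptide separated on Caliper LabChip after phosphorylation by isolated human JAK1 kinase domain (22 °C, 30 min; EDTA quench, 50 mM final).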

[2] = target: isolated recombinant JAK2 kinase domain (Homo sapiens (Human), UniProt O60674); test: JAK2 enzyme assay (Caliper LabChip, Ki); type: biochemical
In short: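 Caliper LabChip readout of phosphorylated product as a fraction of total substrate, a fluorescently N-terminally labelled JAK3-derived peptide. Isolated human JAK kinase domains were incubated 30 min at 22 °C before EDTA quench (50 mM final).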

[3] = test system: JAK1-dependent STAT6 phosphorylation downstream of IL-13 stimulation in BEAS-2B human bronchial epithelial cells; test: JAK1 pathway assay in BEAS-2B cells (IL-13-pSTAT6, MSD); type: cell-based; details: Homo sapiens, BEAS-2B
Protocol: JAK1 Pathway Assay in Cell Lines was carried out as follows:
Inhibitor potency (EC50) was determined in cell-based assays designed to measure JAK1 dependent STAT phosphorylation.
In one assay approach, TF-1 human erythroleukemia cells obtained from the American Type Culture Collection (ATCC; Manassas, Va.) were used to measure JAK1-dependent STAT6 phosphorylation downstream of IL-13 stimulation. Prior to use in the assays, TF-1 cells were starved of GM-CSF overnight in OptiMEM medium (Life Technologies, Grand Island, N.Y.) supplemented with 0.5% charcoal/dextran stripped fetal bovine serum (FBS), 0.1 mM non-essential amino acids (NEAA), and 1 mM sodium pyruvate. The assays were run in 384-well plates in serum-free OptiMEM medium using 300,000 cells per well. In a second assay approach, BEAS-2B human bronchial epithelial cells obtained from ATCC were plated at 100,000 cells per well of a 96-well plate one day prior to the experiment. The BEAS-2B assay was run in complete growth medium (bronchial epithelial basal medium plus bulletkit; Lonza; Basel, Switzerland).
Test compounds were serially diluted 1:2 in DMSO and then diluted 1:50 in medium just before use. Diluted compounds were added to the cells, for a final DMSO concentration of 0.2%, and incubated for 30 min (for the TF-1 assay) or 1 hr (for the BEAS-2B assay) at 37° C. Then, cells were stimulated with human recombinant cytokine at their respective EC90 concentrations, as previously determined for each individual lot. Cells were stimulated with IL-13 (R&D Systems, Minneapolis, Minn.) for 15 min at 37° C. The TF-1 cell reactions were stopped by the direct addition of 10× lysis buffer (Cell Signaling Technologies, Danvers, Mass.), whereas the BEAS-2B cell incubations were halted by the removal of medium and addition of 1× lysis buffer. The resultant samples were frozen in the plates at −80° C. Compound mediated inhibition of STATE phosphorylation was measured in the cell lysates using MesoScale Discovery (MSD) technology (Gaithersburg, Md.).

[4] = BEAS-2B cells, IL-13 stimulation, read-out: IL-13 p-STAT6 BEAS-2B IC50

Sequence of isolated recombinant JAK1 kinase domain (P23458 875-1153): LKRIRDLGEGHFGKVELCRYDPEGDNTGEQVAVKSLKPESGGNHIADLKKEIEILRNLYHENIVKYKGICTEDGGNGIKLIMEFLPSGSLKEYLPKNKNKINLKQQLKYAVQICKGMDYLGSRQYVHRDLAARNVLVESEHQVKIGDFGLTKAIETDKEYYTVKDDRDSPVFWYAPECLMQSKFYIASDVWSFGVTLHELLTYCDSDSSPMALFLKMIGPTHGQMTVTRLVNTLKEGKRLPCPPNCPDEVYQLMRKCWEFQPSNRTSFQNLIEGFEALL
Sequence of isolated recombinant JAK2 kinase domain (O60674 849-1124): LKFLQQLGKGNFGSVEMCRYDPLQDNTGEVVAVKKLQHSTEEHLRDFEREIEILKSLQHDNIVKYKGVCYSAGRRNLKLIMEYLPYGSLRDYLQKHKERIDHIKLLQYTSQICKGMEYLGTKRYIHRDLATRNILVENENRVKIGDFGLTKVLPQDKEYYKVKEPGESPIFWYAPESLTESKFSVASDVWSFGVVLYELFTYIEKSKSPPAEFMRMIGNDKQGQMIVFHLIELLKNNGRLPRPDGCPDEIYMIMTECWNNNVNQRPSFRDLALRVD

| Structure (SMILES) | Ki [1] | Ki [2] | IC50 [3, 4] | IC50 ([3]; read-out: IL-13 p-STAT6 BEAS-2B IC50, BEAS-2B cells, IL-13 stimulation) | Ki ([1]; read-out: JAK1 Ki) |
| --- | --- | --- | --- | --- | --- |
| N#CC[C@]1(n2cc(C(N)=O)c(NC(=O)C3CC3)n2)CC[C@H](NCc2ccccc2Cl)CC1 [Example 117] | 3.7 nM | 54.7 nM | 611 nM |  |  |
| N#CC[C@]1(n2cc(C(N)=O)c(NC(=O)C3CC3)n2)CC[C@@H](NCc2ccc(-c3ccccc3)cc2)CC1 [Example 128] | 4.6 nM | 46.4 nM |  | 349 nM |  |
| CN(CC(F)(F)F)[C@H]1CC[C@](CC#N)(n2cc(C(N)=O)c(NC(=O)C3CC3)n2)CC1 [Example 129] | 3.3 nM | 16.3 nM | 393 nM |  |  |
| COC1(C(F)(F)F)CN([C@H]2CC[C@@](CC#N)(n3cc(C(N)=O)c(NC(=O)C4CC4)n3)CC2)C1 [Example 131] |  | 18.7 nM | 334 nM |  | 2.8 nM |
| N#CC[C@]1(n2cc(C(N)=O)c(NC(=O)C3CC3)n2)CC[C@@H](N2CC(OCc3ccccc3)(C(F)(F)F)C2)CC1 [Example 133] |  | 15.6 nM | 162 nM |  | 2.5 nM |
| CC(C)OC1(C(F)(F)F)CN([C@H]2CC[C@@](CC#N)(n3cc(C(N)=O)c(NC(=O)C4CC4)n3)CC2)C1 [Example 135] |  | 24.3 nM | 170 nM |  | 2.4 nM |
| N#CC[C@]1(n2cc(C(N)=O)c(NC(=O)C3CC3)n2)CC[C@@H](N2CC(O)(C(F)(F)F)C2)CC1 [Example 137, 1-[1-(cyanomethyl)-4-[3-hydroxy-3-(trifluoromethyl)azetidin-1-yl]cyclohexyl]-3-(cyclopropanecarbonylamino) pyrazole-4-carboxamide] |  | 21.7 nM | > 1000 nM |  | 2.7 nM |
| N#CCC1(n2cc(C(N)=O)c(NC(=O)C3CC3)n2)CCN(Cc2ccc(-c3cccc(F)c3)c(O)c2)CC1 [Example 139, 1-[4-(cyanomethyl)-1-[[4-(3-fluorophenyl)-3-hydroxy-phenyl]methyl]-4-piperidyl]-3-(cyclopropanecarbonylamino) pyrazole-4-carboxamide] |  | 1 nM | 104 nM |  | 0.4 nM |
| N#CCC1(n2cc(C(N)=O)c(NC(=O)C3CC3)n2)CCN(Cc2ccc(-c3ccccc3)c(F)c2)CC1 [Example 140, 1-[4-(cyanomethyl)-1-[(3-fluoro-4-phenyl-phenyl)methyl]-4-piperidyl]-3-(cyclopropanecarbonylamino) pyrazole-4-carboxamide] |  | 4.4 nM | 49 nM |  | 0.6 nM |
| N#CCC1(n2cc(C(N)=O)c(NC(=O)C3CC3)n2)CCN(Cc2ccc(-c3csc(Cl)c3)c(F)c2)CC1 [Example 141, 1-[1-[[4-(5-chloro-3-thienyl)-3-fluoro-phenyl]methyl]-4-(cyanomethyl)-4-piperidyl]-3-(cyclopropanecarbonylamino) pyrazole-4-carboxamide] |  | 3.4 nM | 62 nM |  | 0.8 nM |
| N#CCC1(n2cc(C(N)=O)c(NC(=O)C3CC3)n2)CCN(Cc2ccc(-c3ccccc3F)cc2)CC1 [Example 142, 1-[4-(cyanomethyl)-1-[[4-(2-fluorophenyl)phenyl]methyl]-4-piperidyl]-3-(cyclopropanecarbonylamino) pyrazole-4-carboxamide] |  | 12.9 nM | 60 nM |  | 1.7 nM |
| N#CCC1(n2cc(C(N)=O)c(NC(=O)C3CC3)n2)CCN(Cc2ccc(-c3cccc(F)c3)cc2)CC1 [Example 143, 1-[4-(cyanomethyl)-1-[[4-(3-fluorophenyl)phenyl]methyl]-4-piperidyl]-3-(cyclopropanecarbonylamino) pyrazole-4-carboxamide] |  | 5.5 nM | 49 nM |  | 0.7 nM |
| CN(C)C(=O)c1cccc(-c2ccc(CN3CCC(CC#N)(n4cc(C(N)=O)c(NC(=O)C5CC5)n4)CC3)cc2)c1 [Example 145, 1-[4-(cyanomethyl)-1-[[4-[3-(dimethylcarbamoyl)phenyl]phenyl]methyl]-4-piperidyl]-3-(cyclopropanecarbonylamino) pyrazole-4-carboxamide] |  | 15.5 nM | > 1000 nM |  | 3.1 nM |
| N#CCC1(n2cc(C(N)=O)c(NC(=O)C3CC3)n2)CCN(Cc2ccc(-c3cccc(Cl)c3)cc2)CC1 [Example 146, 1-[1-[[4-(3-chlorophenyl)phenyl]methyl]-4-(cyanomethyl)-4-piperidyl]-3-(cyclopropanecarbonylamino) pyrazole-4-carboxamide] |  | 8.2 nM | 95 nM |  | 1.1 nM |
| N#CCC1(n2cc(C(N)=O)c(NC(=O)C3CC3)n2)CCN(Cc2ccc(-c3ccc(Cl)cc3)cc2)CC1 [Example 147, 1-[1-[[4-(4-chlorophenyl)phenyl]methyl]-4-(cyanomethyl)-4-piperidyl]-3-(cyclopropanecarbonylamino) pyrazole-4-carboxamide] |  | 32 nM | 51 nM |  | 2.1 nM |
| N#CCC1(n2cc(C(N)=O)c(NC(=O)C3CC3)n2)CCN(Cc2ccc(-c3ccc(Cl)s3)cc2)CC1 [Example 148, 1-[1-[[4-(5-chloro-2-thienyl)phenyl]methyl]-4-(cyanomethyl)-4-piperidyl]-3-(cyclopropanecarbonylamino) pyrazole-4-carboxamide] |  | 21.2 nM | 48 nM |  | 1.8 nM |
| N#CCC1(n2cc(C(N)=O)c(NC(=O)C3CC3)n2)CCN(Cc2ccc(-c3csc(Cl)c3)cc2)CC1 [Example 149, 1-[1-[[4-(5-chloro-3-thienyl)phenyl]methyl]-4-(cyanomethyl)-4-piperidyl]-3-(cyclopropanecarbonylamino) pyrazole-4-carboxamide] |  | 4.7 nM | 41 nM |  | 0.7 nM |
| N#CCC1(n2cc(C(N)=O)c(NC(=O)C3CC3)n2)CCN(Cc2ccc(-c3ccc(C(F)(F)F)cc3)cc2)CC1 [Example 151, 1-[4-(cyanomethyl)-1-[[4-[4-(trifluoromethyl)phenyl]phenyl]methyl]-4-piperidyl]-3-(cyclopropanecarbonylamino) pyrazole-4-carboxamide] |  | 154 nM | 286 nM |  | 3.4 nM |
| COc1cccc(-c2ccc(CN3CCC(CC#N)(n4cc(C(N)=O)c(NC(=O)C5CC5)n4)CC3)cc2)c1 [Example 152, 1-[4-(cyanomethyl)-1-[[4-(3-methoxyphenyl)phenyl]methyl]-4-piperidyl]-3-(cyclopropanecarbonylamino) pyrazole-4-carboxamide] |  | 7.8 nM | 126 nM |  | 1.3 nM |
| COc1ccc(-c2ccc(CN3CCC(CC#N)(n4cc(C(N)=O)c(NC(=O)C5CC5)n4)CC3)cc2)cc1 [Example 153, 1-[4-(cyanomethyl)-1-[[4-(4-methoxyphenyl)phenyl]methyl]-4-piperidyl]-3-(cyclopropanecarbonylamino) pyrazole-4-carboxamide] |  | 30.8 nM | 103 nM |  | 1.1 nM |
| CCc1cccc(-c2ccc(CN3CCC(CC#N)(n4cc(C(N)=O)c(NC(=O)C5CC5)n4)CC3)cc2)c1 [Example 154, 1-[4-(cyanomethyl)-1-[[4-(3-ethylphenyl)phenyl]methyl]-4-piperidyl]-3-(cyclopropanecarbonylamino) pyrazole-4-carboxamide] |  | 8.7 nM | 116 nM |  | 1.5 nM |
| CCc1ccc(-c2ccc(CN3CCC(CC#N)(n4cc(C(N)=O)c(NC(=O)C5CC5)n4)CC3)cc2)cc1 [Example 155, 1-[4-(cyanomethyl)-1-[[4-(4-ethylphenyl)phenyl]methyl]-4-piperidyl]-3-(cyclopropanecarbonylamino) pyrazole-4-carboxamide] |  | 7.3 nM | 60 nM |  | 0.6 nM |
| N#CCC1(n2cc(C(N)=O)c(NC(=O)C3CC3)n2)CCN(Cc2ccc(-c3cccc(CO)c3)cc2)CC1 [Example 156, 1-[4-(cyanomethyl)-1-[[4-[3-(hydroxymethyl)phenyl]phenyl]methyl]-4-piperidyl]-3-(cyclopropanecarbonylamino) pyrazole-4-carboxamide] |  | 4.3 nM | 209 nM |  | 0.6 nM |
